What was measured:
[1] = molecular target: T1, covalent VEID/caspase-6 complex (Homo sapiens, UniProt P55212); experiment: SPR binding to VEID-FMK-blocked caspase-6; conditions: covalent VEID/caspase-6 (acyl enzyme) complex, 1:1 binding
T1 construct: Residues 24-179 and 194-293 from caspase-6 cDNA (Origene) were cloned into pET-24b and pET-23b vectors; 6x histidine tag; made in house; host or cells: E. coli (as above), BirA co-expressed
T1 sequence (P55212 24-179): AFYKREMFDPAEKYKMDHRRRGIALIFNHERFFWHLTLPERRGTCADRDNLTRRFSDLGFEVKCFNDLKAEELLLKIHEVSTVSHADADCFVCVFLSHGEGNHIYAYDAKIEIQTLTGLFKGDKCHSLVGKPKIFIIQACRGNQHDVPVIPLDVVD
T1 sequence (P55212 194-293): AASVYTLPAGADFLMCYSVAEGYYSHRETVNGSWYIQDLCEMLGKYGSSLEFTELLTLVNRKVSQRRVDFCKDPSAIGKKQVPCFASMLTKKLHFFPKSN
Method: For SPR experiments, caspase-6 was cloned to include a C-terminal avi-tag (Avidity) and expressed and purified as above, except that biotin ligase (BirA) was co-expressed during fermentation. […] Avi-tagged zymogen C163A-caspase-6 was processed to mature C163A-caspase-6 by the addition of active caspase-3 and caspase-6. Chip preparation for neutravidin-based capture was performed as previously described using either a Biacore T100 or Biacore 3000 instrument (GE Healthcare). Running buffer was 50 mM HEPES pH 7.2, 100 mM MgSO4, 30 mM NaCl, 1 mM TCEP, 0.01% Triton X-100, 1% PEG-3350, 2.5% DMSO, and the instrument was set for 20 degrees C. After capture one flow cell of apo-caspase-6 was exposed to a continuous flow of 20 µM VEID-FMK. A rise in signal could be detected for the binding/reacting of the VEID-FMK and exposure was continued until no additional rise in response was observed (∼45 minutes) indicating full saturation of all binding sites. There was no observed decrease in signal upon washing, indicating the reaction was irreversible. […] Fluorescent substrates were too limiting in solubility and quantity to be added to the running buffer, so substrates were mixed at a concentration equal to their Kmapp with 3 and injected together over the indicated surfaces. […]

[2] = molecular target: T2, caspase-6 (Homo sapiens, UniProt P55212); experiment: Steady-state Michaelis-Menten kinetic analysis of caspase-6; assay type: biochemical
T2 construct: Residues 24-179 and 194-293 from caspase-6 cDNA (Origene) were cloned into pET-24b and pET-23b vectors; 6x histidine tag (C); made in house; host or cells: E. coli BL21 (DE3) pLysS
T2 sequence (P55212 24-179): T1 sequence (P55212 24-179)
T2 sequence (P55212 194-293): T1 sequence (P55212 194-293)
Method: The in vitro enzymatic caspase assays utilize synthetic tetrapeptide substrates labeled with the fluorophores Rhodamine110 (R110) or 7-amino-4-methylcoumarin (AMC) at the P1 aspartic acid (Asp) residue. All assays were performed in 384-well plates in 12 µL reaction volume consisting of enzyme, substrate and indicated concentration of inhibitor or DMSO in assay buffer (50 mM HEPES [pH 7.0], 25 mM MgSO4, 0.5 mM EGTA, 5 mM Glutathione (GSH), 0.01% Triton X-100 containing 0.1% Bovine Gamma Globulin (BGG)). All inhibitors were serially diluted in 100% DMSO prior to dilution in assay buffer and transfer to assay plate. DMSO was diluted into assay buffer similarly for blank wells (no enzyme or compound) and final DMSO concentration was 1%. The concentration of caspase-6 used in enzymatic reactions typically varied between 1–10 nM depending on substrate used. Unless otherwise indicated, substrate concentration was within 3-fold of the determined Kmapparent (5 µM (Ac-VEID)2R110 [Kmapp = 8 µM]; 5 µM (Ac-DEVD)2R110 [Kmapp = 8 µM]; 25 µM (Ac-IETD)2R110 [Kmapp = 70 µM]; 25 µM (Ac-WEHD)2R110 [Kmapp = 70 µM]; 10µM Ac-VEID-AMC [Kmapp = 16µM]; 5 µM Ac-VEID-R110 [Kmapp = 8 µM]). The concentration of substrate utilized in selectivity assays for each caspase isoform was also held as close to Kmapparent as reasonably achievable (Table S1). Caspases-3 and -7 were expressed and purified at Genentech as the catalytic domain consisting of large p20 and small p10 subunits without prodomain. For all caspase enzymatic assays, the reaction plate was incubated at room temperature for 40 minutes and then read on Envision (Perkin Elmer) fluorescent plate reader at excitation/emission wavelengths of 485/535 nm (R110) or 350/450 nm (AMC).
The endpoint fluorescent emission (RFU) in each well was plotted as a function of inhibitor concentration and the 50% inhibition (IC50) values were determined using a nonlinear least squares fit of the data to a four parameter equation using Prism 5.0 software (GraphPad Software, San Diego, CA). […] Ki values for Compound 3 were calculated using this equation: Ki = IC50/(Km/[S] +1). Concentration-response curves for each inhibitor were normalized to zero and 100% based on no enzyme or DMSO control, respectively. For steady-state kinetic analysis, initial reaction velocity (RFU/minute) was plotted against substrate concentration at each inhibitor concentration and the data was fit to a hyperbolic Michaelis-Menten model using Prism 5.0 software. Km (µM) and Vmax (RFU/minute) were calculated by using this equation: v = Vmax • [S]/Km+[S] where v = initial reaction velocity at indicated substrate concentration (S). Vmax values were normalized to zero and 100% based on no enzyme or DMSO control, respectively.

`COc1ccc(-c2cc(C(=O)N[C@@H](CO)Cc3cccc(C#N)c3)co2)cc1OC` [Compound 3] was tested, and the Kd [1] was 1300 nM, the “Vmax (% of DMSO control) for (VEID)2R110” value ([2]; 3 nM of 3) was 77.51 % of DMSO control and the “Vmax (% of DMSO control) for (VEID)2R110” value ([2]; 10 nM of 3) was 55.35 % of DMSO control. For the same compound, the “Vmax (% of DMSO control) for (VEID)2R110” value ([2]; 30 nM of 3) was 31.09 % of DMSO control, the “Vmax (% of DMSO control) for (VEID)2R110” value ([2]; 100 nM of 3) was 14.10 % of DMSO control and the mechanism of inhibition ([2]; (DEVD)2R110 substrate) was “uncompetitive”. The mechanism of inhibition ([2]; (VEID)2R110 substrate) was “uncompetitive”.

From PMC3515450, “Mechanistic and Structural Understanding of Uncompetitive Inhibitors of Caspase-6” (PLoS ONE, 2012)
